Data on one compound can be found in paper PMC9354042, “Discovery of BRAF/HDAC Dual Inhibitors Suppressing Proliferation of Human Colorectal Cancer Cells” (Frontiers in Chemistry, 2022).

The structures appear in SMILES notation. “Also recorded” adds a separate entry of the source. Like-named read-outs stand apart in the source and are kept apart here.

One experiment addresses T1, HDAC6 (Homo sapiens, UniProt Q9UBN7).
T1 construct: purchased BPS Bioscience
T1 sequence (Q9UBN7 1-1215): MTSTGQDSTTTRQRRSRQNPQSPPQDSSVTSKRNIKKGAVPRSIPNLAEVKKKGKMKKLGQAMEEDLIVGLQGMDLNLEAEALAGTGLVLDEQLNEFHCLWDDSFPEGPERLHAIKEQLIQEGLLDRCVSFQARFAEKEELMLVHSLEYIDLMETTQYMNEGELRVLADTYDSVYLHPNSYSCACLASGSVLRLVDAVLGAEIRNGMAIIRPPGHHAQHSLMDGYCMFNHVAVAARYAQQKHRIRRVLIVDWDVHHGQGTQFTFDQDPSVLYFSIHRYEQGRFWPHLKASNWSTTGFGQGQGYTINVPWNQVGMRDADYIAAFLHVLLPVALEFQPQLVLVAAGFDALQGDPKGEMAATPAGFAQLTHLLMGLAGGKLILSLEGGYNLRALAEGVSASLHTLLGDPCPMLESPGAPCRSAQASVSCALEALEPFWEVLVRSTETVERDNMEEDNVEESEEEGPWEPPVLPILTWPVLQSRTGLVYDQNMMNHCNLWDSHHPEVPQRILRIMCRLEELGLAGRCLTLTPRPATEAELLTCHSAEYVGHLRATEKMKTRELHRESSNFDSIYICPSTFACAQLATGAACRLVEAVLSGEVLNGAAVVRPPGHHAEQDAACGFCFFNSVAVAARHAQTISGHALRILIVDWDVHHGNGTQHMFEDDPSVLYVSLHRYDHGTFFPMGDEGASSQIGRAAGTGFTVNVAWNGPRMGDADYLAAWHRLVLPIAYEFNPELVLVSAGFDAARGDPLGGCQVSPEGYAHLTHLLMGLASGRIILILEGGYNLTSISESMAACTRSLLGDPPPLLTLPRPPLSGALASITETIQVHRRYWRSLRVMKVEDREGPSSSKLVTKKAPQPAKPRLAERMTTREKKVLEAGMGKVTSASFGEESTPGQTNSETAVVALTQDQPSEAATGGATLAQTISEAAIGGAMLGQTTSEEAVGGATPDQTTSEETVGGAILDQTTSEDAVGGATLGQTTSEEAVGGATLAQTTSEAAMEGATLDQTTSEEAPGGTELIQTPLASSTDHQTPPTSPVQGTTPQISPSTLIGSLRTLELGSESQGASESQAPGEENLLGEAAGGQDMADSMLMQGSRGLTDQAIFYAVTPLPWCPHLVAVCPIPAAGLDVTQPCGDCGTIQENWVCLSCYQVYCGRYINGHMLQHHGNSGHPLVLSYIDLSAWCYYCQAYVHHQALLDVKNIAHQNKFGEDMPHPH
The experiment is described as follows: HDAC6 fluorescent-based enzymatic activity assay. The format is biochemical. As to the method:
The purified recombinant Human HDACs and their corresponding substrates were purchased from BPS Bioscience (BPS Bioscience Inc., United States). The assays were carried out in a 384-well format using the BPS fluorescent–based HDAC activity assay according to the manufacturer’s protocol. In brief, […] of the HDAC reaction mixture was composed of HDAC assay buffer, […] BSA, serial diluted test compounds, appropriate concentration of HDACs, and […] fluorogenic substrate, the mixture was incubated at 37°C for 60 min, and then stopped by the addition of developer containing trypsin and TSA. After 20 min of incubation, the fluorescence was detected at the excitation wavelength of 360 nm and the emission wavelength of 460 nm using the EnVision Multilabel Reader (PerkinElmer Inc., United States). The analytical software, GraphPad Prism 5.0 (GraphPad Software, Inc., United States) was used to generate IC50 value via non-linear regression analysis.

Experiment [1] concerns Ac-histone H3, Ac-α-tubulin, p-ERK in HT-29 cells. The experiment in a line: Western blot analysis of HDAC and RAF pathway in HT-29 cells. The format is cell-based, human. As to the method: FIGURE 3 Characterization of dual inhibition of HDAC and RAF pathway. Western blot analysis of 14b in HCT116 cells (A) and in HT-29 cells (B). Cells were treated with 0 μM, 0.12 μM, 0.37 μM, 1.1 μM, 3.3 μM, and 10 μM of drugs and incubated for 6 h. The cell lysis was subjected to Western blot analysis.
The cells were treated with various concentrations of 14b for 6 h. Then, the cells were lysed using 1×SDS sample lysis buffer (CST recommended) with protease and phosphatase inhibitors. Cell lysates were loaded and electrophoresed onto 8–12% SDS-PAGE gel, and then the separated proteins were transferred to a PVDF film. The film was blocked with 5% BSA (Sigma-Aldrich, St. Louis, MO, United States) in a TBS solution containing 0.5% Tween-20 for 4 h at room temperature, then incubated with the corresponding primary antibody (1:1000–1:200) overnight at 4°C. After washing with TBST, HRP-conjugated secondary antibody was incubated for 2 h. The protein signals were visualized by the ECL Western Blotting Detection Kit (Thermo Scientific, Grand Island, NY, United States), and detected with Amersham Imager 600 system (GE, Boston, MA, United States).
On the technique in general: A western blot detects proteins with antibodies after separation by electrophoresis.

A further experiment relates to P-ERK in B16 cells. The experiment is described as follows: Immunoblot analysis of P-ERK in B16 cells. The experiment is classed as cell-based. Conditions: B16 mouse melanoma cells with wild type BRAF, 24 h. From the text: Supplementary Figure 2. 14b inhibit the phosphorylation of ERK in B16 cells.

In the case of `CC(C)(C)c1nc(-c2cccc(NS(=O)(=O)c3c(F)cccc3F)c2F)c(-c2ccnc(NCCCCCCC(=O)NO)n2)s1` [14b, 7-{[4-(2-(Tert-Butyl)-4-(3-((2,6-Difluorophenyl)Sulfonamido)-2-Fluorophenyl)Thiazol-5-yl)Pyrimidin-2-yl]Amino}-N-Hydroxyheptanamide], the “HDAC6 inhibition fold more potent than class I isoforms” value on HDAC6 (HDAC6 vs HDAC1, HDAC2, HDAC3, HDAC8) is over 10 fold. Besides, at HDAC6 (HDAC6 vs HDAC4, HDAC5, HDAC7), the “HDAC6 inhibition fold more potent than class IIA HDACs” value is reported as over 800 fold. For the same compound, at HDAC6 (Table 1, read-out: Enzymatic IC50 HDAC6), the IC50 was 49.2 nM. Moreover, the IC50 on HDAC6 (Table 3 isoform panel, read-out: Enzyme inhibition HDAC6 (Class IIB)) worked out at 49 nM. Also, in experiment [1], the “expression of BRAF” value is given as “did not affect the expression of BRAF itself”. For the same compound, in experiment [1] (0.12-10 μM, 6 h), the “acetylated histone H3 (Ac-histone H3)” value is on record as “upregulated”, the “acetylated α-tubulin (Ac-α-tubulin)” value is recorded as “upregulated” and the “phosphorylation of ERK (p-ERK)” value is given as “significantly inhibited at the lowest concentration of 0.12 μM”. In addition, in the experiment with P-ERK in B16 cells, the “phosphorylation of ERK (P-ERK)” value is recorded as “downregulate P-ERK; also recorded: p-ERK inhibition was observed”.
